Assays:
[1] = Example 2: daily doses of vanoxerine for 11 consecutive days, PK and hemodynamics; type: in vivo, human
[2] = Example 3: daily vanoxerine for 14 days in healthy patients; type: in vivo, human
Experimental: A standardized meal was served 15 minutes prior to each dosing.

[3] = Example 4: daily vanoxerine for 7 days; type: in vivo, human
[4] = system: atrial fibrillation/atrial flutter; test: Example 6: placebo-controlled study of conversion of recent onset symptomatic AF/AFL to sinus rhythm; type: in vivo, human
Experimental: The vanoxerine or identical appearing placebo was randomly assigned and administered in a double-blinded fashion.
Definition of “pure” atrial flutter: only Atrial Flutter (no AF) seen at −30, −15, and 0 time points. Conversion at any time within 24 hours.

[5] = Pharmacokinetic parameters from tests in dogs; type: in vivo, dog
Description: Vanoxerine is primarily eliminated from the body in urine, bile, and feces. Indeed, a substantial amount of the drug is expelled, unabsorbed into the feces. […] However, the long half-life of the drug may actually be utilized to minimize the continuous or regular dosing of the drug.

[6] = healthy subjects; cited from earlier work

Fc1ccc(C(OCCN2CCN(CCCc3ccccc3)CC2)c2ccc(F)cc2)cc1 [Vanoxerine, 1-[2-[bis(4-fluorophenyl)methoxy]ethyl]-4-(3-phenylpropyl)piperazine]
steady state reached ([1]; 50, 75 and 100 mg daily doses): ≤ 8 days | plasma levels at 24 hours ([1]; 50, 75 and 100 mg doses): detectable | adverse events ([2]; 25, 75, 125 mg daily for 14 days, healthy patients, after standardized meal): No significant adverse events | all patients achieved steady state after ([2]; repetitive dosing, all patients): 7 to 10 days | systolic blood pressure and heart rate ([3]; 100 mg daily for 7 days): increases | systolic blood pressure and heart rate ([3]; 150 mg daily for 7 days): increases | Steady-state levels achieved ([3]; 50, 100, 150 mg daily for 7 days, all patients): within one week | Adverse events: number of AEs reported ([4]; 200 mg (22)): reporting 8 AEs | Adverse events: number of SAEs ([4]; 200 mg (22)): (1 SAE) | Adverse events: subjects reporting AEs, N (%) ([4]; 200 mg (22)): 4 (18%) subjects | Adverse events: number of AEs reported ([4]; 300 mg (25)): reporting 12 AEs | Adverse events: subjects reporting AEs, N (%) ([4]; 300 mg (25)): 7 (28%) subjects | Adverse events: number of AEs reported ([4]; 400 mg (25)): reporting 23 AEs | Adverse events: number of SAEs ([4]; 400 mg (25)): AEs (1 SAE) | Adverse events: subjects reporting AEs, N (%) ([4]; 400 mg (25)): 10 (40%) subjects | tolerability ([4]; all doses (200, 300, 400 mg)): well tolerated at all doses | conversion to sinus rhythm of recent onset symptomatic AF/AFL, dose dependence ([4]; doses of 200, 300 and 400 mg): highly statistically significant dose dependent increase | relation of the two serious adverse events to study drug ([4]; one at 200 mg (upper respiratory infection), one at 400 mg (lower extremity edema secondary to amlodipine)): neither related to the study drug | elimination from the plasma T112 [5]: 22 h | effects at higher doses (concentration difficulties, increase systolic blood pressure, asthenia, feeling of drug influence) [6]: some effects were seen

From patent US20160303113A1 (LAGUNA PHARMACEUTICALS ,INC., priority 2013, published 2016)
